Data published in the NIST ThermoML archive (doi:10.1021/je100765j).

How the values were obtained:
[1] = refractive index (Na D-line) (dimensionless); details: 101.33 kPa, Liquid, Standard Abbe refractometry
[2] = 101.33 kPa, Liquid; for speed of sound: Sing-around technique in a fixed-path interferometer; for mass density: Vibrating tube method

CC(C)CCl [1-chloro-2-methylpropane]
Details | mass density, [2] [kg/m3] | refractive index, [1] | speed of sound, [2] [m/s]
283.15 K | 888.845 | 1.40354 | 1141.7
288.15 K | 883.211 | 1.4008 | 1120.7
293.15 K | 877.539 | 1.39802 | 1099.6
298.15 K | 871.833 | 1.39529 | 1078.7
303.15 K | 866.096 | 1.39245 | 1057.8
308.15 K | 860.319 | 1.38963 | 1037
313.15 K | 854.502 | 1.38683 | 1016.3

CCCCCl [1-chlorobutane]
Details | mass density, [2] [kg/m3] | refractive index, [1] | speed of sound, [2] [m/s]
283.15 K | 897.339 | 1.4075 | 1180.1
288.15 K | 891.855 | 1.40481 | 1159.5
293.15 K | 886.335 | 1.40212 | 1138.8
298.15 K | 880.705 | 1.3995 | 1118.2
303.15 K | 875.204 | 1.39672 | 1097.6
308.15 K | 869.585 | 1.39395 | 1077.2
313.15 K | 863.882 | 1.39131 | 1056.9

CC(C)(C)Cl [2-chloro-2-methylpropane]
Details | mass density, [2] [kg/m3] | refractive index, [1] | speed of sound, [2] [m/s]
283.15 K | 855.249 | 1.39115 | 1046.9
288.15 K | 849.243 | 1.38821 | 1025.5
293.15 K | 843.191 | 1.38522 | 1004.1
298.15 K | 837.096 | 1.38225 | 983.25
303.15 K | 830.958 | 1.37921 | 961.51
308.15 K | 824.772 | 1.37619 | 940.46
313.15 K | 818.536 | 1.37312 | 919.41

CCC(C)Cl (stereo not given) [2-chlorobutane]
Details | mass density, [2] [kg/m3] | refractive index, [1] | speed of sound, [2] [m/s]
283.15 K | 884.34 | 1.40226 | 1127.7
288.15 K | 878.756 | 1.39953 | 1107.2
293.15 K | 873.13 | 1.3968 | 1086.7
298.15 K | 867.474 | 1.39404 | 1066.2
303.15 K | 861.779 | 1.39125 | 1045.9
308.15 K | 856.044 | 1.38844 | 1025.3
313.15 K | 850.266 | 1.38562 | 1005.3

CC(C)OC(C)C [diisopropyl ether]
Details | mass density, [2] [kg/m3] | refractive index, [1] | speed of sound, [2] [m/s]
283.15 K | 733.833 | 1.37358 | 1065.5
288.15 K | 728.692 | 1.37084 | 1043.1
293.15 K | 723.509 | 1.36812 | 1020.6
298.15 K | 718.289 | 1.36525 | 998.27
303.15 K | 713.032 | 1.36242 | 976.02
308.15 K | 707.727 | 1.35956 | 953.94
313.15 K | 702.378 | 1.35667 | 932.01
